Like-named read-outs stand apart in the source and are kept apart here.
Legend:
[1] = format: in vivo, New Zealand White rabbits; conditions: for Plasma concentration / AUC(0-t): 1 mg/eye; for Plasma concentration: below LOQ; for Cmax / Tmax: New Zealand White, rabbit, 1 mg; for AUC(0-t): NZW rabbits
[2] = format: in vivo, Dutch Belted rabbits; conditions: for Cmax / Tmax: 4 mg; for AUC(0-t): DB rabbits, 91 days
[3] = format: in vivo, rabbits; conditions: rabbit, RCS, sc, 1.05 mg/eye
[4] = format: in vivo, Dutch Belted rabbits; conditions: for Tmax / Cmax / half-life: Dutch Belted, rabbit, sc; for AUC(0-t): DB rabbits
[5] = vitreous humor, topical or ocular
[6] = Dutch Belted, rabbit, RPE-choroid-sclera complex (RCS), sc
[7] = Dutch Belted, rabbit, vitreous humor, sc
[8] = SC, 4 mg/eye, throughout 91-day study, not detected/quantifiable, LOQ
[9] = RPE-choroid-sclera complex (RCS), 0.03 mg
[10] = RPE-choroid-sclera complex (RCS), 0.1 mg
[11] = SC, 0.03 and 0.10 mg/eye, 10-week study
[12] = SC, 0.03 and 0.1 mg/eye, any timepoint, not quantifiable, LOQ

- Plasma concentration ([1]; IVT, all timepoints): < 0.150 ng/mL
- Cmax ([1]; posterior eye cup (PEC), sc): 799000 ng/g
- Tmax ([1]; posterior eye cup (PEC), sc): 6 h
- Cmax ([1]; posterior eye cup (PEC), topical or ocular): 124000 ng/g
- Cmax ([1]; vitreous humor, sc): 3670 ng/g
- Tmax ([1]; vitreous humor, sc): 168 h
- Cmax [1, 5]: 1.28e+06 ng/g
- Tmax [1, 5]: 0.08 h
- AUC(0-t) ([1]; PEC (posterior eye cup), SC injection): 5208 µg·days/g
- AUC(0-t) ([1]; PEC, IVT injection): 471 µg·days/g
- Plasma concentration ([1]; SC, all timepoints except 6 hours): < 0.150 ng/mL
- AUC(0-t) ([1]; vitreous humor, IVT injection): 6208 µg·days/g
- AUC(0-t) ([1]; vitreous humor, SC injection): 19 µg·days/g
- Cmax [2, 6]: 2.2e+07 ng/g
- Tmax [2, 6]: 96 h
- half-life ([2]; Dutch Belted, rabbit, RPE-choroid-sclera complex (RCS), sc, 4 mg/eye): 143 days
- Cmax ([2]; Dutch Belted, rabbit, retina, sc): 325000 ng/g
- concentration at 91 day ([2]; Dutch Belted, rabbit, retina, sc, 4 mg/eye): 305000 ng/g
- Cmax [2, 7]: 858 ng/mL
- Tmax [2, 7]: 96 h
- AUC(0-t) ([2]; RCS (RPE-choroid-sclera, dose depot), SC, 4 mg/eye): 1,260,000 µg·d/g
- Aqueous humor concentration [2, 8]: < 1 ng/mL
- Plasma concentration [2, 8]: < 0.15 ng/mL
- Vitreous humor level lower than that of RCS and retina ([2]; SC, 4 mg/eye, density of vitreous humor assumed 1): 3 to 4 log orders
- AUC(0-t) ([2]; vitreous humor, SC, 4 mg/eye): 31.1 µg·d/g or µg*d/mL
- concentration at 182 day [3]: 199000 ng/g
- Tmax ([4]; RPE-choroid-sclera complex (RCS)): 24 h
- Cmax [4, 9]: 37200 ng/g
- Tmax [4, 9]: 24 h
- half-life [4, 9]: 264 h
- Cmax [4, 10]: 232000 ng/g
- Tmax [4, 10]: 24 h
- half-life [4, 10]: 384 h
- Cmax ([4]; retina, 0.03 mg): 4480 ng/g
- Tmax ([4]; retina, 0.03 mg): 24 h
- Cmax ([4]; retina, 0.1 mg): 6260 ng/g
- Tmax ([4]; retina, 0.1 mg): 24 h
- Cmax ([4]; vitreous humor, 0.03 mg): 4.01 ng/mL
- Tmax ([4]; vitreous humor, 0.03 mg): 24 h
- Cmax ([4]; vitreous humor, 0.1 mg): 4.58 ng/mL
- Tmax ([4]; vitreous humor, 0.1 mg): 24 h
- AUC(0-t) ([4]; RCS, SC, 0.03 mg/eye): 338 µg·days/g
- AUC(0-t) ([4]; RCS, SC, 0.1 mg/eye): 2320 µg·days/g
- Mean AUC0-∞ after 0.10 mg dose versus 0.03 mg dose ([4]; RCS, SC, dose ratio 3.33): ~7 fold
- Mean Cmax after 0.10 mg dose versus 0.03 mg dose ([4]; RCS, SC, dose ratio 3.33): approximately 6 fold
- RCS (dose depot) level higher than retina [4, 11]: 1 to 2 orders of magnitude
- Retina level higher than vitreous humor [4, 11]: 3 to 4 orders of magnitude
- Aqueous humor concentration [4, 12]: < 1 ng/mL
- Plasma concentration [4, 12]: < 0.15 ng/mL
- AUC(0-t) ([4]; retina, SC, 0.03 mg/eye): 17.3 µg·days/g
- AUC(0-t) ([4]; retina, SC, 0.1 mg/eye): 28.1 µg·days/g
Structure (SMILES): CNC(=O)c1ccccc1Sc1ccc2c(/C=C/c3ccccn3)n[nH]c2c1 [Axitinib]
